Reference: EP0328389A2, “Compostions for treating intracranial tumors” (MATRIX PHARMACEUTICAL INC., priority 1988, dated 1989)

Assays:
[1] = Acute drug toxicity: deaths by day 7 after intracranial drug injection; type: in vivo, mice; conditions: mouse, in vivo, 0.2 mg/kg; read-out: % of Mice That Died
Description: (§1) The use of vinblastine (VBL) and vincristine (VC) alone and in combination with a protein carrier on the growth of experimental murine tumors grown intracranially was investigated. Halothane-anesthesized C3H mice 12-16 weeks in age were injected intracranially (i.c.) into the right frontal lobe with 10 µl total volume of Hank's balanced salt solution containing 5 X 10⁴ KHT fibrosarcoma cells through a burr hole made in the exposed cranium with a compressed air-driven drill. Following injection, the cranium was sealed with bone wax, and the overlying skin was sutured.
(§2) The test solution with and without matrix and the saline control were delivered intracranially (i.c.) in an injection volume of 10 µl through the same burr hole used for tumor cell inoculation. All mice were observed daily.
(§3) The acute drug toxicity level was determined by the percentage of animal survival on day 7 following drug injection. A comparison of the acute toxicity (deaths) of mice treated i.c. with matrix-associated VBL to aqueous VBL (10 µl) injection volume to the right frontal lobe is shown in Table 1 below. […]

C3H mice = test: as above; type: in vivo; conditions: 0.2 mg/kg vinblastine i.c., 10 µl, right frontal lobe, 5 days post tumor implantation; deaths by day 7 following drug injection; epinephrine 0.1 mg/kg; matrix 1:1 bovine collagen 36 mg/ml
Description: as §1, §2, §3

CC[C@]1(O)C[C@@H]2CN(CCc3c([nH]c4ccccc34)[C@@](C(=O)OC)(c3cc4c(cc3OC)N(C)[C@H]3[C@@](O)(C(=O)OC)[C@H](OC(C)=O)[C@]5(CC)C=CCN6CC[C@]43[C@@H]65)C2)C1 [Vinblastine, vinblastine]
mortality at 168 h [1]: 26% | Number of Mice That Died (C3H mice): 7
